pEC50, pIC50: −log10 of the molar value. Calls of active or inactive are those of the source.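 How the source made its calls: active means compounds giving half or more protection of infected cells from virus-caused growth loss, again on retest; inactive means the rest.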

The assay has as its system CEM cells HIV-1 protection, formazan growth assay. In words: NCI AIDS Antiviral Assay. To be noted: for pIC50: measured here: growth of uninfected CEM cells. The method in brief:
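Human CEM cells, uninfected and HIV-1-infected, received five drug concentrations, and growth was read by soluble formazan assay. Compounds giving at least 50% protection were retested; reproducible 100% protection defined confirmed active.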

What is called pEC50 is the negative decadic logarithm of the EC50, by convention in mol/L. The pIC50 is −log10 of the IC50, conventionally taken in molar units. A low value points to a large IC50. On to `O=C(c1ccccc1)C1C(c2ccccc2)SC(c2ccccc2)CC1(O)c1ccccc1` (centres undefined), for which the pEC50 is < 3.82 and the pIC50 was 4.68.
With `COc1c(N2CCCCC2)c2c(=O)c3ccccc3oc2c2cc(C)oc12`, the pEC50 was < 3.70 and the pIC50 was 4.95.
Taken in the same sequence, the figures for `O=C(Nc1nc2ncn(CCNCCn3cnc4nc(NC(=O)c5ccccc5)[nH]c(=O)c43)c2c(=O)[nH]1)c1ccccc1` were < 4.63 and < 4.63.
Taken in the same sequence, the figures for `O=C1C=CC(=O)c2c1ccc1c3ccccc3n(Cc3cccc([N+](=O)[O-])c3)c21` were < 3.70 and 5.87.
For `OCc1ccc[n+](CCc2c[nH]c3ccccc23)c1`, in that order: < 3.12 and 3.50.
On to `COc1ccccc1C1C2=C(COC2=O)Oc2cc3c(cc21)OCO3` (centres undefined), for which the pEC50 is < 3.70 and the negative-log IC50 (pIC50) was 5.66.
Taken in the same sequence, the figures for `Cc1nnc(N)nc1C/C=C/C(Sc1ccc(Cl)cc1)c1ccccc1` (centres undefined) were < 5.01 and 5.40.
Consider `O=C1c2ccccc2C(=O)c2sc(Nc3ccc(Cl)cc3)nc21`, for which the pEC50 is < 4.96 and the pIC50 was 5.33.
Taken in the same sequence, the figures for `Cc1cc(C)cc(Nc2cc(=O)[nH]c(=O)[nH]2)c1` were < 3.70 and < 3.70.
For `NC(=O)C(=O)N/N=C(\CC1(O)C(=O)Nc2ccccc21)c1ccc2ccccc2c1` (centres undefined), in that order: < 4.47 and < 4.47.
`N#Cc1c(N)c(C(=O)Nc2ccccc2)n2c1CCC2`: the pEC50 was < 3.70 and the pIC50 is < 3.70.
With `O=c1[nH]c(=O)n2n1CC(Br)C(Br)C2` (centres undefined), the outcome was inactive.
`Cc1nc2ccccc2c(=O)n1NC(=S)Nc1ccccc1`: the pEC50 is < 3.94 and the pIC50 was 3.97.
For the compound `O=C1C2c3[nH]c4ccccc4c3[C@@H]3CCCCC3C2C(=O)N1c1ccccc1` (some centres undefined), the outcome was inactive.
Regarding `O=C1c2ccccc2C(=O)c2c1oc1cc(O)c(Cl)cc21`, the pEC50 was < 4.78 and the pIC50 was < 4.78.
For the compound `COc1ccc2c(-c3ccc(OCCN(C)C)cc3)c(Oc3ccc(Cl)cc3)c(=O)oc2c1`, the pEC50 is < 3.70 and the pIC50 is 5.23.
For `O=C(O)C1CC2C3CCC2C1C3=O` (centres undefined), in that order: < 3.70 and < 3.70.
Taken in the same sequence, the figures for `COC1/C=C/OC2(C)Oc3c(C)c(O)c4c(O)c(cc(OCC(=O)N(C)C5CCCCC5)c4c3C2=O)NC(=O)/C(C)=C/C=C/C(C)C(O)C(C)C(O)C(C)C(OC(C)=O)C1C` (centres undefined) were < 3.70 and 4.91.
On to `O=C1CCCC2=C1CC1=C(CCCC1=O)N2c1ccc([N+](=O)[O-])cc1`, for which the pEC50 was < 3.70 and the pIC50 is < 3.70.
As to `CCOC(=O)c1nc2ccc(C(F)(F)F)cc2nc1NCc1ccc(F)cc1`, the pEC50 was < 3.70 and the pIC50 was 4.63.
Consider `COC(=O)/C=C(C)/C=C/C1OC(C)OCC1O` (centres undefined), for which the pEC50 is < 2.99 and the pIC50 is < 2.99.
Take `CC1=NC(=O)CC2=C1C(C)N(Cc1ccccc1)C2=O` (centres undefined): the pEC50 is < 3.45 and the pIC50 is < 3.45.
In the case of `OCCN(CCO)c1ccc2ccc(N(CCO)CCO)nc2n1`, the pEC50 is < 3.70 and the pIC50 was 4.59.
Taken in the same sequence, the figures for `CC(C)(C)c1cc(C(=O)Nc2cc(Br)c(Br)cc2S(N)(=O)=O)cc(C(C)(C)C)c1O` were < 3.70 and 5.09.
As to `Clc1ncc(Cl)c(Cl)n1`, the result was inactive.
On to `CC(C)CCCC(C)C1CCC2C3CC[C@H]4C[C@@H](NC(=O)C=C(c5cc(Cl)c(O)c(C(=O)O)c5)c5cc(Cl)c(O)c(C(=O)O)c5)CC[C@]4(C)C3CC[C@]12C` (some centres undefined), for which the pEC50 is 4.25 and the pIC50 was 4.01.
Taken in the same sequence, the figures for `BrCCOc1ccc(-c2c3ccccc3c(-c3ccc(OCCBr)cc3)c3ccccc23)cc1` were < 4.00 and < 4.00.
Turning to `OC1(c2ccccc2)CC2CCC(C1)N2CCCC(O)(c1ccccc1)c1ccccc1` (centres undefined), the pEC50 was < 3.70 and the pIC50 was 4.54.
Taken in the same sequence, the figures for `[N-]=[N+]=CC(=O)OC1CCOCC1` were < 3.70 and < 3.70.
As for `COc1ccc(CNc2cnc3cc(N)ccc3n2)cc1`, the pEC50 is < 4.17 and the pIC50 was < 4.17.
Regarding `CN1C(=O)c2ccccc2NC(=O)c2cnn(C)c21`, the result was inactive.
As for `CCOc1ccc(Nc2nc(N)nc(N)c2N)cc1`, the pEC50 is < 3.70 and the pIC50 was 4.18.
Regarding `Cn1c(COC(=O)Nc2ccccc2)c(COC(=O)Nc2ccccc2)c2ccc3ccccc3c21`, the pEC50 is < 3.70 and the pIC50 was 6.47.
Taken in the same sequence, the figures for `C=CCNC(=S)/N=C/C(C(=O)Nc1ccccc1)=C(/C)O` were < 3.70 and < 3.70.
For `CC(=O)[C-](C)C(C)=O.CC(=O)[C-](C)C(C)=O.NCCNCCNC(=O)c1cccc2nc3ccccc3nc12.[Cl-].[Co+3]`, in that order: < 3.82 and 4.50.
With `CCOC(=O)c1cccc(=O)c(C(=O)OCC)c1`, the outcome was inactive.
With `O=C1CCC2(c3ccccc3)Nc3ncccc3N12` (centres undefined), the pEC50 is < 3.70 and the pIC50 is < 3.70.
Consider `OCC(O)C(OC1OC(CO)C(O)C(O)C1O)c1nn(-c2ccc(Cl)cc2)c2nc3cc(Cl)c(Cl)cc3nc12` (centres undefined), for which the result was inactive.
On to `O=C1c2cccc(NCCCNCCO)c2C(=O)c2cccc(NCCCNCCO)c21`, for which the result was inactive.
Same read-out and setting: next, `CC1Cc2c(N)nc(NN)nc2NC1=O` (centres undefined): “inactive”.
In the case of `N#CCc1nc2ccccc2c(=O)[nH]1`, the pEC50 was 4.75 and the pIC50 was 4.16.
`CCOC(=O)C(=CCC1NCCc2c1[nH]c1ccccc21)C(=O)OCC` (centres undefined): the pEC50 is < 4.69 and the pIC50 is 4.92.
`CC(C)OP(=O)(OC(C)C)C(C(C)C)N(C)/C(F)=N/C(F)(F)F` (centres undefined): the pEC50 was < 3.70 and the pIC50 is < 3.70.
For the compound `Nn1c(=S)[nH]n2cnnc12`, the pEC50 is < 2.80 and the pIC50 was 3.73.
For the compound `Fc1ccccc1-c1nn2c(C34CC5CC(CC(C5)C3)C4)nnc2s1`, the pEC50 is < 3.70 and the pIC50 is < 3.70.
For the compound `[N-]=[N+]=NCC(CO)OCn1cc(Cc2ccccc2)c(=O)[nH]c1=O` (centres undefined), the result was inactive.
Consider `N#Cc1c(NCCc2ccc(F)cc2)c2ccccc2n2c1nc1ccccc12`, for which the pEC50 is 4.96 and the pIC50 is < 3.70.
Taken in the same sequence, the figures for `CN(C)CCSc1cccc(-c2cc(-c3cccc(SCCN(C)C)c3)nc(SCCN(C)C)n2)c1` were < 3.34 and 6.15.
For `C1=C(c2ccccc2)O[C@H](COCc2ccccc2)C(OCc2ccccc2)[C@@H]1OCc1ccccc1` (some centres undefined), the outcome was inactive.
The compound `CCCCCCNC(=O)Sc1ccccc1C(=O)N[C@H](C)C(N)=O` showed a pEC50 of 6.85 and a pIC50 of 3.97.
Taken in the same sequence, the figures for `Cc1cccc(-n2c(C)nc3ccc(NC4OC(CO)C(O)C(O)C4O)cc3c2=O)c1` (centres undefined) were < 3.70 and < 3.70.
`C(=C\c1ccnc2ccccc12)/c1ccc2c(c1)OCO2`: the result was inactive and the pIC50 was 4.18.
For `Cc1ccc(S(=O)(=O)OC(F)(F)C(F)(F)F)cc1`, the pEC50 is < 3.63 and the pIC50 was < 3.63.
Consider `CN1CCc2c(sc(N)c2C#N)C1`, for which the outcome was inactive.
Turning to `Cc1cc(Br)cc(C)c1NC(=O)C(=O)CC(=O)c1sc(-n2nc(-c3ccccc3)cc2-c2ccccc2)nc1C`, the result was inactive.
For `CC(C)(C)[Si](C)(C)OC1(CCc2ccccc2OS(=O)(=O)C(F)(F)F)CCCC=C1COCc1ccccc1` (centres undefined), the pEC50 was < 3.70 and the pIC50 was 4.40.
For `COC(=O)n1c(=O)nc2c3c(ncn21)Oc1c(c(-c2ccccc2)nn1-c1ccccc1)C3c1ccc(Cl)cc1` (centres undefined), the pEC50 is < 4.00 and the pIC50 was 5.63.
In the case of `CSc1ccc(C(=O)C(=O)c2ccc(SC)s2)s1`, the pEC50 was < 3.70 and the pIC50 was 3.81.
Consider `CCCCCCCCCCC(c1ccc(O)c(C(=O)O)c1)c1ccc(O)c(C(=O)O)c1`, for which the pEC50 is < 3.35 and the pIC50 was 3.97.
Taken in the same sequence, the figures for `CC12C3C4C1C1C2C3C41CO` (centres undefined) were < 3.70 and < 3.70.
For the compound `CN1CCN(c2nc3cc(F)ccc3n3cccc23)CC1`, the pEC50 is < 3.70 and the pIC50 is 4.56.
Taken in the same sequence, the figures for `NNC(=S)NNC(N)=O` were 4.23 and < 3.70.
For `CCCCOC1NC(=O)NC(=O)C1(F)C(=O)OCC` (centres undefined), in that order: < 3.70 and 5.18.
On to `CCCCCCOP(OCCCCCC)OCCCCCC`, for which the result was inactive.
With `Nc1ncnc2c1ncn2C1OC(CSC(F)(F)F)C(O)C1O` (centres undefined), the pEC50 is < 3.15 and the pIC50 is 3.95.
Taken in the same sequence, the figures for `CC(C)c1cccc(C(C)C)c1NC(=O)C(=O)C1CCC2=C(Sc3ccccc3N2)C1=O` (centres undefined) were < 3.69 and 5.65.
For the compound `Cc1ccc(NC(=O)C(=O)C2C(=O)NC(=O)NC2=O)c(C)c1`, the pEC50 was < 3.08 and the pIC50 is < 3.08.
Turning to `CCOC(=O)C(CC1COc2ccccc2O1)C(=O)OCC` (centres undefined), the outcome was inactive.
Same read-out and setting: next, `Cc1c(N)nc(C2CC(=O)N2CC(N)C(N)=O)nc1C(=O)NC(C(=O)NC(C)C(O)C(C)C(=O)NC(C(=O)NCCc1nc(-c2nc(C(=O)NCCNCC(C)O)cs2)cs1)C(C)O)C(OC1OC(CO)C(O)C(O)C1OC1OC(CO)C(O)C(OC(N)=O)C1O)c1cnc[nH]1` (centres undefined): “inactive”.
For the compound `S=C1SC(c2ccc(Cl)cc2)(c2ccc(Cl)cc2)c2ccccc21`, the pEC50 is < 3.70 and the pIC50 is 3.91.
For `Oc1ccccc1-c1cnnc(-c2ccccc2O)c1`, in that order: < 4.01 and 4.74.
For `O=C(c1ccccc1)N1C(=O)c2ccccc21`, in that order: < 3.79 and 4.31.
